Assay results reported in patent US20230416329A1, “A PEPTIDE WITH DISULFIDE BONDS AND INHIBITORY ACTIVITY AGAINST SERINE PROTEASES, DERIVED HYBRID PEPTIDES THEREOF, AND USES THEREOF” (INSTITUTE OF MATERIA MEDICA , CHINESE ACADEMY OF MEDICAL …, priority 2020, published 2023).
pIC50, pKi: −log10 of the molar value. Bridge positions count the residues as written; N and C are the ends. Peptide text beside a SMILES is read from it.

Target: T1, bovine trypsin (Bos taurus, UniProt P00760)
T1 sequence (P00760 24-246): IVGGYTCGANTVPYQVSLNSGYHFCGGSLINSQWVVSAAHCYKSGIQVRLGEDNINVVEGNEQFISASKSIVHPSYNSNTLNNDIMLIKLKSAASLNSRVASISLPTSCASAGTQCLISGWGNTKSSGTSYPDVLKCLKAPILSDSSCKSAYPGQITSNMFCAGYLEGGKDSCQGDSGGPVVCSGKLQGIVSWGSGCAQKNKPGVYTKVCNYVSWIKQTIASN
Experiment: Trypsin inhibitory activity of peptides (BApNA hydrolysis, OD405; IC50, Ki, residual activity)
Format: biochemical
Settings: for pKi: read-out: inhibition constant (Ki) towards trypsin; for pIC50: trypsin 50 nM, BApNA 1.22 mM, read-out: IC50
Procedure: The substrates N-succinyl-Ala-Ala-Pro-Phe-p-nitroaniline (AAPFpNA), Nα—Benzoyl-L-arginine-4-nitroaniline hydrochloride (BApNA) and N-succinyl-[…] (AAApNA) are used in competitive binding reaction to determine the inhibitory activities against α-chymotrypsin, bovine trypsin, and porcine pancreatic elastase, respectively. Experiments for α-chymotrypsin and bovine trypsin inhibition were measured in 20 mM CaCl2, 50 mM Tris-HCl buffer (pH 7.8), and that for porcine elastase inhibition was measured in 50 mM Tris-HCl buffer (pH 8.0). The concentration of the peptide was measured using optical density (OD) at 280 nm. The Michaelis constant (Km) of the enzyme hydrolysis substrate is calculated from the initial rate of substrate hydrolysis at 405 nm. The absorbance value of the substrate was measured at 405 nm after complete hydrolysis. All data were processed using nonlinear regression.
• (1) Added 200 μL of reaction buffer (20 mM CaCl2 and 50 mM Tris-HCl, pH 7.8) into the 96-well plate, and preheated at 37° C. for 15 min. Then added 5 μL of different concentrations of substrates (p-Nitroanilide, pNA, 0.5% in DMSO), and mixed by centrifugation at 500 rpm for 1 min. […] The experiment was performed in triplicate. The standard curve was obtained by plotting the OD405 nm value with pNA concentration. • (2) Added 190 μL of reaction buffer (20 mM CaCl2 and 50 mM Tris-HCl, pH 7.8) and 10 μL of 1 μM trypsin into the 96-well plate, and preheated at 37° C. for 15 min. Then added 5 μL of different concentrations of substrates (BApNA, 0.5% in DMSO) and mixed by centrifugation at 500 rpm for 1 min. […] The experiment was performed in triplicate. The corresponding curve was obtained by plotting the OD405 nm value with time. Divided the slope of the curve by the slope of the standard curve and the enzyme concentration to obtain the initial velocity V0 (mM/(min*mM protein). Plotted the initial velocity V0 with the concentration of substrate BApNA using Prism software, and the Michaelis constant Km value of trypsin hydrolyzing BApNA was obtained.
• (1) Added a total 190 μL of reaction buffer (20 mM CaCl2 and 50 mM Tris-HCl, pH 7.8) along with different concentrations of anti-trypsin peptides (BTs) into the pre-cooled 96-well plate, followed by preheating at 37° C., and spined down at 500 rpm for 5 min. Next added 10 μL of 1 μM trypsin, incubated at 37° C., and then spined down at 500 rpm for 10 min. Finally, added 5 μL of 50 mM BApNA, and mixed by centrifugation at 500 rpm for 1 min. The plate was incubated at 37° C. for 260 min, and the absorbance value at 405 nm was measured. The experiment was performed in triplicate. The blank control only contained the reaction buffer and the substrate as the minimum absorption value (Min OD405 nm). The negative control only contained the reaction buffer, the enzyme and the substrate as the maximum absorption value (Max OD405 nm). • (2) In the reaction system of 205 μL, the final concentrations of trypsin and BApNA were 50 nM and 1.22 mM, respectively. • (3) Data statistics
Residual activity of the enzyme (%)=(1−(Max OD405 nm−Sample OD405 nm)/(Max OD405 nm−Min OD405 nm))*100
Plotted the residual activity of the enzyme with […] to obtain the half inhibitory concentration (IC50) of BTs scaffold against trypsin. Then, substituted it into the formula Ki=IC50/(1+S/Km) (S, IC50 and Km were substrate concentration, half inhibitory concentration and Michaelis constant, respectively) to obtain the inhibition constant Ki of BTs scaffold against trypsin.

SMILES	Residual trypsin activity (peptide 0.488 μM) [%]	Residual trypsin activity (peptide 0.98 μM) [%]	Residual trypsin activity (peptide 1.95 μM) [%]	Residual trypsin activity (peptide 4.88 μM) [%]	pKi	pIC50	inhibitory activity against trypsin (in words)	Residual trypsin activity (peptide 0.00488 μM) [%]	Residual trypsin activity (peptide 0.0488 μM) [%]	other results
CC[C@H](C)[C@@H]1NC(=O)[C@@H]2CCCN2C(=O)[C@@H]2CCCN2C(=O)[C@H]([C@@H](C)CC)NC(=O)[C@H](CO)NC(=O)[C@H](CCCCN)NC(=O)[C@H]([C@@H](C)O)NC(=O)[C@H](C)NC(=O)[C@H](CO)NC(=O)CNC(=O)[C@@H](N)CSSC[C@@H](C(=O)N[C@@H](Cc2ccccc2)C(=O)N2CCC[C@H]2C(=O)N[C@@H](CC(=O)O)C(=O)O)NC1=O [BT6] (H-CGSATKSIPPICFPD-OH; disulfide 1-12; N-terminus and C-terminus assumed)	25.9 ± 2.9	8.5 ± 0.9	2.8 ± 0.0	1.2 ± 0.2	7.22	6.54	enhanced trypsin inhibitory activity	111.9 ± 7.2		Residual trypsin activity (peptide 0.000488 μM): 99.3 ± 7.2%; Residual trypsin activity (peptide 0.002439 μM): 108.6 ± 7.1%; Residual trypsin activity (peptide 0.195 μM): 77.5 ± 7.6%
CC[C@H](C)[C@@H]1NC(=O)[C@@H]2CCCN2C(=O)[C@@H]2CCCN2C(=O)[C@H]([C@@H](C)CC)NC(=O)[C@H](CO)NC(=O)[C@H](CCCCN)NC(=O)[C@H]([C@@H](C)O)NC(=O)[C@H](C)NC(=O)[C@H](C)NC(=O)CNC(=O)[C@@H](N)CSSC[C@@H](C(=O)N[C@@H](Cc2ccccc2)C(=O)N2CCC[C@H]2C(=O)N[C@@H](CC(=O)O)C(=O)O)NC1=O [BT7] (H-CGAATKSIPPICFPD-OH; disulfide 1-12; N-terminus and C-terminus assumed)		5.7 ± 1.7	1.5 ± 0.3		7.30		enhanced trypsin inhibitory activity		95.2 ± 1.1	Residual trypsin activity (peptide 0.000098 μM): 103.5 ± 1.6%; Residual trypsin activity (peptide 0.0002439 μM): 107.8 ± 3.2%; Residual trypsin activity (peptide 0.000488 μM): 97.9 ± 4.3%; Residual trypsin activity (peptide 0.2439 μM): 48.5 ± 5.3%; Residual trypsin activity (peptide 1.463 μM): 2.9 ± 1.1%
CC[C@H](C)[C@@H]1NC(=O)[C@@H]2CCCN2C(=O)[C@@H]2CCCN2C(=O)[C@H]([C@@H](C)CC)NC(=O)[C@H](CO)NC(=O)[C@H](CCCCN)NC(=O)[C@H]([C@@H](C)O)NC(=O)[C@H](C)NC(=O)[C@H](CCCNC(=N)N)NC(=O)CNC(=O)[C@@H](N)CSSC[C@@H](C(=O)O)NC1=O [BT8] (H-CGRATKSIPPIC-OH; disulfide 1-12 (inferred); N-terminus and C-terminus assumed)						< 4.30				

Continued, in another order:

Residual trypsin activity (peptide 0.488 μM) [%]	Residual trypsin activity (peptide 0.98 μM) [%]	Residual trypsin activity (peptide 1.95 μM) [%]	Residual trypsin activity (peptide 4.88 μM) [%]	pKi	pIC50	inhibitory activity against trypsin (in words)	Residual trypsin activity (peptide 0.00488 μM) [%]	Residual trypsin activity (peptide 0.0488 μM) [%]	SMILES	other results
94.6 ± 1.7	83.6 ± 5.2	72.9 ± 6.1	12.9 ± 1.3	6.19					CC[C@H](C)[C@@H]1NC(=O)[C@@H]2CCCN2C(=O)[C@@H]2CCCN2C(=O)[C@H]([C@@H](C)CC)NC(=O)[C@H](CO)NC(=O)[C@H](CCCCN)NC(=O)[C@H]([C@@H](C)O)NC(=O)CNC(=O)[C@H](CCCCN)NC(=O)[C@H](C)NC(=O)CNC(=O)[C@@H](N)CSSC[C@@H](C(=O)N[C@@H](Cc2ccccc2)C(=O)N2CCC[C@H]2C(=O)N[C@@H](CC(=O)O)C(=O)O)NC1=O [BT2] (H-CGAKGTKSIPPICFPD-OH; disulfide 1-13; N-terminus and C-terminus assumed)	Residual trypsin activity (peptide 2.93 μM): 51.2 ± 9.0%; Residual trypsin activity (peptide 9.76 μM): 4.2 ± 0.4%; Residual trypsin activity (peptide 19.51 μM): 3.7 ± 0.5%; Residual trypsin activity (peptide 39.02 μM): 0.5 ± 0.1%
67.2 ± 4.8	23.3 ± 5.3		1.8 ± 0.9	6.85					CC[C@H](C)[C@@H]1NC(=O)[C@@H]2CCCN2C(=O)[C@@H]2CCCN2C(=O)[C@H]([C@@H](C)CC)NC(=O)[C@H](CO)NC(=O)[C@H](CCCCN)NC(=O)[C@H]([C@@H](C)O)NC(=O)[C@H](C)NC(=O)[C@H](CCCCN)NC(=O)[C@H](C)NC(=O)CNC(=O)[C@@H](N)CSSC[C@@H](C(=O)N[C@@H](Cc2ccccc2)C(=O)N2CCC[C@H]2C(=O)N[C@@H](CC(=O)O)C(=O)O)NC1=O [BT3] (H-CGAKATKSIPPICFPD-OH; disulfide 1-13; N-terminus and C-terminus assumed)	Residual trypsin activity (peptide 0.098 μM): 95.7 ± 3.6%; Residual trypsin activity (peptide 0.1463 μM): 86.8 ± 2.5%; Residual trypsin activity (peptide 0.293 μM): 85.6 ± 1.3%; Residual trypsin activity (peptide 9.76 μM): 0.9 ± 0.4%; Residual trypsin activity (peptide 19.51 μM): 0.1 ± 0.0%
					< 4.30				CC[C@H](C)[C@@H]1NC(=O)[C@@H]2CCCN2C(=O)[C@@H]2CCCN2C(=O)[C@H]([C@@H](C)CC)NC(=O)[C@H](CO)NC(=O)[C@H](CCCCN)NC(=O)[C@H]([C@@H](C)O)NC(=O)CNC(=O)[C@H](CCCCN)NC(=O)[C@H](C)NC(=O)CNC(=O)[C@@H](N)CSSC[C@@H](C(=O)N[C@@H](CC(=O)O)C(=O)O)NC(=O)[C@H](Cc2ccccc2)NC(=O)CNC1=O [BT4] (H-CGAKGTKSIPPIGFCD-OH; disulfide 1-15 (inferred); N-terminus and C-terminus assumed)	
3.0 ± 0.2	0.7 ± 0.1			7.52		enhanced trypsin inhibitory activity	103.7 ± 5.2	83.1 ± 0.4	CC[C@H](C)[C@@H]1NC(=O)[C@@H]2CCCN2C(=O)[C@@H]2CCCN2C(=O)[C@H]([C@@H](C)CC)NC(=O)[C@H](CO)NC(=O)[C@H](CCCCN)NC(=O)[C@H]([C@@H](C)O)NC(=O)[C@H](C)NC(=O)[C@H](CCCNC(=N)N)NC(=O)CNC(=O)[C@@H](N)CSSC[C@@H](C(=O)N[C@@H](Cc2ccccc2)C(=O)N2CCC[C@H]2C(=O)N[C@@H](CC(=O)O)C(=O)O)NC1=O [BT5] (H-CGRATKSIPPICFPD-OH; disulfide 1-12; N-terminus and C-terminus assumed)	Residual trypsin activity (peptide 0.00098 μM): 104.0 ± 5.2%; Residual trypsin activity (peptide 0.002439 μM): 108.1 ± 2.6%; Residual trypsin activity (peptide 0.098 μM): 75.2 ± 5.9%
−0.2 ± 0.1	−0.4 ± 0.0			8.00	7.15	excellent trypsin inhibitory activities	99.0 ± 0.5	68.1 ± 1.4	CC[C@H](C)[C@@H]1NC(=O)[C@@H]2CCCN2C(=O)[C@@H]2CCCN2C(=O)[C@H]([C@@H](C)CC)NC(=O)[C@H](CO)NC(=O)[C@H](CCCCN)NC(=O)[C@H]([C@@H](C)O)NC(=O)[C@H](C)NC(=O)[C@H](CCCNC(=N)N)NC(=O)CNC(=O)[C@@H](N)CSSC[C@@H](C(=O)N[C@@H](Cc2ccccc2)C(=O)O)NC1=O [BT9] (H-CGRATKSIPPICF-OH; disulfide 1-12; C-terminus assumed)	Residual trypsin activity (peptide 0.00098 μM): 100.4 ± 0.6%; Residual trypsin activity (peptide 0.0098 μM): 94.3 ± 1.3%; Residual trypsin activity (peptide 0.02439 μM): 84.2 ± 1.9%; Residual trypsin activity (peptide 0.2439 μM): 0.3 ± 0.0%
